Assay results from ChEMBL document CHEMBL1139055, “Structure-activity relationships of pentacycloundecylamines at the N-methyl-d-aspartate receptor” (Bioorg Med Chem, 2007).
The source made the active and inactive calls. The calls are words filed in the database; no cut-off is given here.

How the values were obtained:
[1] = Antagonist activity at NMDA receptor in ICR mouse synaptoneurosome assessed as inhibition of NMDA/Gly-mediated 45-calcium influx; format: functional
Mus musculus [2] = species: Mus musculus; experiment: Displacement of [3H]MK-801 from NMDA receptor in ICR mouse synaptoneurosome at 100 uM
Mus musculus [3] = species: Mus musculus; experiment: Displacement of [3H]TCP from NMDA receptor in ICR mouse synaptoneurosome at 100 uM
Mus musculus [4] = species: Mus musculus; experiment: Displacement of [3H]glutamate from NMDA receptor in ICR mouse synaptoneurosome
[5] = Antagonist activity at NMDA receptor in ICR mouse synaptoneurosome assessed as inhibition of NMDA/Gly-mediated 45-calcium influx at 2 uM relative to control; format: functional

Structure (SMILES)	IC50 [1] [µM]	Activity (Mus musculus [2])	Activity (Mus musculus [3])	Activity (Mus musculus [4])	Inhibition [5] [%]
C[C@]12N[C@H](Cc3ccccc31)c1ccccc12 [DIZOCILPINE]	1.23	73%	65%	–	–
c1ccc(CCNC23OC4C5C6CC(C7C6C4C72)C53)cc1 (configuration not stated)	23.5	inactive	44%	–	–
NC1C2C3CC4C1C1C2CC3C41 (configuration not stated)	4.06	inactive	inactive	inactive	–
c1ccc(CNC23OC4C5C6CC(C7C6C4C72)C53)cc1 (configuration not stated)	2.98	inactive	20%	inactive	108.9
COc1cccc(CNC23OC4C5C6CC(C7C6C4C72)C53)c1 (configuration not stated)	20.7	–	–	–	–
OC12CC3C4C5CC6C4C3C1C(NCc1ccccc1)C6C52 (configuration not stated)	36.2	–	–	–	–
O=[N+]([O-])c1ccccc1CNC12OC3C4C5CC(C6C5C3C61)C42 (configuration not stated)	37.6	–	–	–	–
O=[N+]([O-])c1cccc(CNC23OC4C5C6CC(C7C6C4C72)C53)c1 (configuration not stated)	32.8	–	–	–	–
CC12CC3CC(C)(C1)CC(N)(C3)C2 [MEMANTINE]	3.05	90%	67%	–	–
